Results taken from patent publication US12729407B2, “Mucins and isoforms thereof in diseases characterized by barrier dysfunction” (priority 2020, dated 2026).
Like-named read-outs stand apart in the source and are kept apart here.

Tested on: Calu3 cells infected with SARS-CoV-2
Assay type: cell-based, human
[1] = Calu3 cells, SARS-CoV-2 0.1 MOI 2 h, then drug 48 h, vs untreated infected cells

Compound	MUC1 mRNA expression [1]	MUC4 mRNA expression [1]	MUC21 mRNA expression [1]	MUC1 mRNA expression	MUC4 mRNA expression	MUC5AC mRNA expression	MUC5B mRNA expression	MUC13 mRNA expression	MUC21 mRNA expression	mucin hypersecretion (mucins of the signature: MUC13, MUC21, MUC16 and MUC1) (concluding remark on the Calu3 drug screen)
Tocilizumab [toculizumab]	significantly reduce	significantly reduce	significantly reduce	–	–	–	–	–	–	–
NC(=O)c1nc(F)c[nH]c1=O [favipiravir]	–	–	–	increase	decrease	decrease	decrease	decrease	decrease	suppress mucin hypersecretion
